The compounds below were run against HCV NS5B-21 (Hepatitis C virus genotype 1b (isolate Con1) (HCV), UniProt Q9WMX2) (assay: Enzyme assay, HCV NS5B-21 SPA (scintillation proximity assay)). Conditions: triphosphates.
Type: biochemical
Experimental: It is this triphosphate which is believed to be the antivirally active species. The enzyme assay described here may be used to confirm that compounds of the invention are antivirally active as the 5′-triphosphate metabolite.
The enzyme assay measures the inhibitory effect of triphosphate compounds in an HCV NS5B-21 (21-amino acid C-terminally truncated version) SPA assay (scintillation proximity assay). The assay is performed by evaluating the amount of radiolabelled ATP incorporated by HCV NS5B-21 into newly synthesized RNA using an heterogeneous biotinylated RNA template.
To determine IC50 values the compounds are tested at various concentrations in a final volume of 100 μl of reaction mixture. The reaction is stopped by addition of 0.5M EDTA solution.
The samples are transferred into flashplates precoated with streptavidin. The incorporated radioactivity is quantified using a scintillation counter (Wallac Microbeta Trilux).
The assay should include enzyme controls (about four, containing 1 μl DMSO instead of inhibitor) and background control containing all ingredients except template.
Compounds are serially diluted in DMSO on a separate dilution plate to 100× the final desired assay concentrations. […]
Incubate the plate over night and read the flash plate in the Microbeta Trilux using the protocol Flash plates H3. […]
IC50 is determined using Graphpad Prism. […]

| SMILES | IC50 [nM] |
| --- | --- |
| Nc1ccn([C@@H]2O[C@H](COP(=O)(O)OP(=O)(O)OP(=O)(O)O)[C@@H](O)[C@]2(F)Cl)c(=O)n1 [Example 27, (((2R,3R,4 S, 5R)-5-(4-amino-2-oxopyrimidin-1(2H)-yl)-4-chloro-4-fluoro-3-hydroxytetrahydrofuran-2-yl)methyl)triphosphoric acid] | 89 |
| O=c1ccn([C@@H]2O[C@H](COP(=O)(O)OP(=O)(O)OP(=O)(O)O)[C@@H](O)[C@]2(F)Cl)c(=O)[nH]1 [Example 3, Lithium ((2R,3R,4 S,5R)-4-chloro-5-(2,4-dioxo-3,4-dihydropyrimidin-1(2H)-yl)-4-fluoro-3-hydroxytetrahydrofuran-2-yl)methyl triphosphate] | 720 |

These compounds were tested on HCV type 1b replicon (Huh-7 luc/neo, Huh-Luc) (assay: Replicon assay, Huh-Luc cells with HCV type 1b replicon (stable), luciferase readout). Conditions: Hepatitis C virus, Huh-7, 72 h, Huh-Luc HCV 1b replicon, three days incubation, luciferase activity; read-out: EC50.
Type: cell-based
Description: The compounds of formula I may be examined for activity in the inhibition of HCV RNA replication in a cellular assay aimed at identifying compounds that inhibit a HCV functional cellular replicating cell line, also known as HCV replicons. A suitable cellular assay is based on a bicistronic expression construct, as described by Lohmann et al. (1999), Science vol. 285 pp. 110-113 with modifications described by Krieger et al. (2001), Journal of Virology 75: 4614-4624, in a multi-target screening strategy.
The assay utilizes the stably transfected cell line Huh-7 luc/neo (hereafter referred to as Huh-Luc). This cell line harbors an RNA encoding a bicistronic expression construct comprising the wild type NS3-NS5B regions of HCV type 1b translated from an Internal Ribosome Entry Site (IRES) from encephalomyocarditis virus (EMCV), preceded by a reporter portion (FfL-luciferase), and a selectable marker portion (neo^R, neomycine phosphotransferase). The construct is bordered by 5′ and 3′ NTRs (non-translated regions) from HCV type 1b. Continued culture of the replicon cells in the presence of G418 (neo^R) is dependent on the replication of the HCV RNA. The stably transfected replicon cells that express HCV RNA, which replicates autonomously and to high levels, encoding inter alia luciferase, are used for screening the antiviral compounds.
The replicon cells are plated in 384 well plates in the presence of the test and control compounds which are added in various concentrations. Following an incubation of three days, HCV replication is measured by assaying luciferase activity (using standard luciferase assay substrates and reagents and a Perkin Elmer ViewLux™ ultraHTS microplate imager). Replicon cells in the control cultures have high luciferase expression in the absence of any inhibitor. The inhibitory activity of a compound on luciferase activity is monitored on the Huh-Luc cells, enabling a dose-response curve for each test compound. EC50 values are then calculated, which value represents the amount of the compound required to decrease the level of detected luciferase activity by 50%, or more specifically, the ability of the genetically linked HCV replicon RNA to replicate.

| SMILES | EC50 [nM] |
| --- | --- |
| CC(C)OC(=O)[C@H](C)NP(=O)(OC[C@H]1O[C@@H](n2ccc(=O)[nH]c2=O)[C@@](F)(Cl)[C@@H]1O)Oc1ccc(C2(C)CC2)cc1 (stereo partly drawn) [Example 17] | 110 |
| CCOC(=O)[C@H](C)NP(=O)(OC[C@H]1O[C@@H](n2ccc(=O)[nH]c2=O)[C@@](F)(Cl)[C@@H]1O)Oc1ccccc1 (stereo partly drawn) [Example 6] | 79 |
| CC(C)OC(=O)[C@H](C)NP(=O)(OC[C@H]1O[C@@H](n2ccc(=O)[nH]c2=O)[C@@](F)(Cl)[C@@H]1O)Oc1ccc2c(c1)OCO2 (stereo partly drawn) [Example 9] | 190 |
| COc1ccc(OP(=O)(N[C@@H](C)C(=O)OC(C)C)OC[C@H]2O[C@@H](n3ccc(=O)[nH]c3=O)[C@@](F)(Cl)[C@@H]2O)cc1 (stereo partly drawn) [Example 11] | 150 |
| CC[C@@H](C)OC(=O)[C@H](C)NP(=O)(OC[C@H]1O[C@@H](n2ccc(=O)[nH]c2=O)[C@@](F)(Cl)[C@@H]1O)Oc1ccccc1 (stereo partly drawn) [Example 5] | 43 |
| CCC(CC)COC(=O)[C@H](C)NP(=O)(OC[C@H]1O[C@@H](n2ccc(=O)[nH]c2=O)[C@@](F)(Cl)[C@@H]1O)Oc1ccccc1 (stereo partly drawn) [Example 7] | 55 |
| CC[C@H](C)OC(=O)[C@H](C)NP(=O)(OC[C@H]1O[C@@H](n2ccc(=O)[nH]c2=O)[C@@](F)(Cl)[C@@H]1O)Oc1ccccc1 (stereo partly drawn) [Example 13] | 61 |
| CC(C)OC(=O)[C@H](C)NP(=O)(OC[C@H]1O[C@@H](n2ccc(=O)[nH]c2=O)[C@@](F)(Cl)[C@@H]1O)Oc1cccc(C2CC2)c1 (stereo partly drawn) [Example 12] | 180 |
| CCCCOC(=O)[C@H](C)NP(=O)(OC[C@H]1O[C@@H](n2ccc(=O)[nH]c2=O)[C@@](F)(Cl)[C@@H]1O)Oc1ccccc1 (stereo partly drawn) [Example 8] | 44 |
| CCC(CC)OC(=O)[C@H](C)NP(=O)(OC[C@H]1O[C@@H](n2ccc(=O)[nH]c2=O)[C@@](F)(Cl)[C@@H]1O)Oc1ccccc1 (stereo partly drawn) [Example 22] | 58 |
| COC[C@H](C)OC(=O)[C@H](C)NP(=O)(OC[C@H]1O[C@@H](n2ccc(=O)[nH]c2=O)[C@@](F)(Cl)[C@@H]1O)Oc1ccccc1 (stereo partly drawn) [Example 25] | 100 |
| COc1ccccc1OP(=O)(N[C@@H](C)C(=O)OC(C)C)OC[C@H]1O[C@@H](n2ccc(=O)[nH]c2=O)[C@@](F)(Cl)[C@@H]1O (stereo partly drawn) [Example 10] | 45 |
| CC(C)OC(=O)[C@H](C)NP(=O)(OC[C@H]1O[C@@H](n2ccc(N)nc2=O)[C@@](F)(Cl)[C@@H]1O)Oc1ccccc1 (stereo partly drawn) [Example 26, (2S)-Isopropyl 2-(((((2R,3R,4S,5R)-5-(4-amino-2-oxopyrimidin-1(2H)-yl)-4-chloro-4-fluoro-3-hydroxytetrahydrofuran-2-yl)methoxy)(phenoxy)phosphoryl)amino)propanoate] | 86 |
| C[C@H](NP(=O)(OC[C@H]1O[C@@H](n2ccc(=O)[nH]c2=O)[C@@](F)(Cl)[C@@H]1O)Oc1ccccc1)C(=O)OC1CCCCC1 (stereo partly drawn) [Example 4, (2S)-cyclohexyl 2-(((((2R,3R,4S,5R)-4-chloro-5-(2,4-dioxo-3,4-dihydropyrimidin-1(2H)-yl)-4-fluoro-3-hydroxytetrahydrofuran-2-yl)methoxy)(phenoxy)phosphoryl)amino)propanoate] | 90 |
| CC(C)OC(=O)[C@H](C)NP(=O)(OC[C@H]1O[C@@H](n2ccc(=O)[nH]c2=O)[C@@](F)(Cl)[C@@H]1O)Oc1cccc(C2CCC2)c1 (stereo partly drawn) [Example 15] | 90 |
| CC(C)OC(=O)[C@H](C)NP(=O)(OC[C@H]1O[C@@H](n2ccc(=O)[nH]c2=O)[C@@](F)(Cl)[C@@H]1O)Oc1cccc(C2(C)CC2)c1 (stereo partly drawn) [Example 16] | 91 |
| CC(C)OC(=O)[C@H](C)NP(=O)(OC[C@H]1O[C@@H](n2ccc(=O)[nH]c2=O)[C@@](F)(Cl)[C@@H]1O)Oc1cccc2ncccc12 (stereo partly drawn) [Example 24] | 1400 |
| CCCOC(=O)[C@H](C)NP(=O)(OC[C@H]1O[C@@H](n2ccc(=O)[nH]c2=O)[C@@](F)(Cl)[C@@H]1O)Oc1ccccc1 (stereo partly drawn) [Example 14] | 76 |
| COC[C@@H](C)OC(=O)[C@H](C)NP(=O)(OC[C@H]1O[C@@H](n2ccc(=O)[nH]c2=O)[C@@](F)(Cl)[C@@H]1O)Oc1ccccc1 (stereo partly drawn) [Example 20] | 65 |
| O=c1ccn([C@@H]2O[C@H](CO)[C@@H](O)[C@]2(F)Cl)c(=O)[nH]1 [Example 1, 1-((2R,3S,4R,5R)-3-chloro-3-fluoro-4-hydroxy-5-(hydroxymethyl)tetrahydrofuran-2-yl)pyrimidine-2,4(1H,3H)-dione] | > 50000 |
| COCC(COC)OC(=O)[C@H](C)NP(=O)(OC[C@H]1O[C@@H](n2ccc(=O)[nH]c2=O)[C@@](F)(Cl)[C@@H]1O)Oc1ccccc1 (stereo partly drawn) [Example 21] | 210 |

Same assay, conditions: Huh-Luc HCV 1b replicon, three days incubation, luciferase activity; read-out: EC50

| SMILES | EC50 [nM] |
| --- | --- |
| CC(C)OC(=O)[C@H](C)NP(=O)(OC[C@H]1O[C@@H](n2ccc(=O)[nH]c2=O)[C@@](F)(Cl)[C@@H]1O)Oc1ccccc1 (stereo partly drawn) [Example 23] | 5100 |

— patent publication US10106571B2, “HCV polymerase inhibitors” (priority 2013, dated 2018)
